According to patent EP3046573B1, “AMYLIN ANALOGUES” (Zealand Pharma A/S, priority 2013, dated 2015):
Numbered stars: 1 amine (or outer) side, 2 acyl side, 3 side chain; on linkers, the order of the positions; unused ones are H or OH. Bridge positions count the residues as written; N and C are the ends. Square brackets hold non-standard residues; d marks the D form. Peptide text beside a SMILES is read from it. * marks the point of attachment. C20 diacid = O=C(O)CCCCCCCCCCCCCCCCCCC(=O)*; Pro(4R-NH2) = N[C@H]1CN[C@H](C(=O)O)C1; γGlu = O=C(O)[C@H](CCC(=O)[*:2])N[*:1]; Hyp = O=C(O)[C@@H]1C[C@@H](O)CN1; NMeI = CC[C@H](C)[C@H](NC)C(=O)O; Sar = CNCC(=O)O

Experiment: Assessment of chemical stability: normalized purity by RP-HPLC after incubation at 40 °C
Type: physicochemical
Settings: normalized purity (T=0 set to 100), 0.2 mg/ml; for Chem. stability; 7 days, 40°C pH 4: pH 4, 7 days; for Chem. stability; 7 days, 40°C pH 7.5: pH 7.5, 7 days; for Chem. stability; 7 days, 40°C pH 9: pH 9, 7 days
Experimental: Samples of each test peptide were dissolved in MilliQ™ water, and the pH of the solution was adjusted to pH 4, pH 7.5 or pH 9, respectively, using either HCI or NaOH. The final peptide concentration was 0.2 mg/ml. Samples were placed in glass vials and incubated at 40 °C. The samples were analyzed by RP-HPLC on a C8 column with gradient elution using an ammonium formate/water eluent system, or on a C18 column with gradient elution using a trifluoroacetic acid/water eluent system. The area-percentage (area-%) of the main peak after incubation time T = t (relative to time T = 0) was determined by UV spectroscopy at 220 nm.
The purity was first determined as follows: Purity(area−%) = (area of main peak/total area of all peaks) × 100. [formula]
The purity was then normalized between time points by setting purity at time 0 (T=0) to 100 for each pH value for a given peptide, as follows: Normalised area−%at time t(T = t) = [area−%(T = t)/area−%(T = 0)] × 100. [formula]
The normalized purity values in Table 2 were determined after 7 days of incubation. Table 2. EC50, chemical stability and fibrillation data for compounds of the invention

Row | Structure (SMILES) | Chem. stability; 7 days, 40°C pH 4 [area-%] | Chem. stability; 7 days, 40°C pH 7.5 [area-%] | Chem. stability; 7 days, 40°C pH 9 [area-%]
1 | CC[C@H](C)[C@@H](C(=O)N[C@@H](CC(C)C)C(=O)N[C@@H](CO)C(=O)N[C@@H](CO)C(=O)N[C@H](C(=O)N[C@@H](CC(N)=O)C(=O)N[C@H](C(=O)NCC(=O)N[C@@H](CO)C(=O)N[C@@H](CC(N)=O)C(=O)N[C@H](C(=O)N1CCC[C@H]1C(N)=O)[C@@H](C)O)C(C)C)[C@@H](C)O)N(C)C(=O)[C@H](C)NC(=O)CN(C)C(=O)[C@H](Cc1ccccc1)NC(=O)[C@H](CC(N)=O)NC(=O)[C@H](CC(N)=O)NC(=O)[C@H](CO)NC(=O)[C@H](CO)NC(=O)[C@H](CCCNC(=N)N)NC(=O)[C@H](Cc1c[nH]cn1)NC(=O)[C@H](CC(C)C)NC(=O)[C@H](Cc1ccccc1)NC(=O)[C@H](CCC(=O)O)NC(=O)[C@H](C)NC(=O)[C@H](CC(C)C)NC(=O)[C@H](CCCNC(=N)N)NC(=O)[C@H](CCC(N)=O)NC(=O)[C@@H](NC(=O)[C@H](C)NC(=O)[C@@H]1CSSC[C@H](NC(=O)[C@H](CCCCN)NC(=O)[C@H](CCCCN)NC(=O)CC[C@H](NC(=O)CCCCCCCCCCCCCCCCCCC(=O)O)C(=O)O)C(=O)N[C@@H](CC(N)=O)C(=O)N[C@@H]([C@@H](C)O)C(=O)N[C@@H](C)C(=O)N[C@@H]([C@@H](C)O)C(=O)N1)[C@@H](C)O [Compound 87, [19CD]-isoGlu-KKC()NTATC()ATQRLAEFLHRSSNNF-Gly(Me)-A-Ile(Me)-LSSTNVGSNTP-NH2] ({C20 diacid-γGlu}-KKCNTATCATQRLAEFLHRSSNNF[Sar]A[NMeI]LSSTNVGSNTP-NH2; disulfide 3-8) | 63 | 39 | 40
2 | CC[C@H](C)[C@@H](C(=O)N[C@@H](CC(C)C)C(=O)N[C@@H](CO)C(=O)N[C@@H](CO)C(=O)N[C@H](C(=O)N[C@@H](CC(N)=O)C(=O)N[C@H](C(=O)NCC(=O)N[C@@H](CO)C(=O)N[C@@H](CC(N)=O)C(=O)N[C@H](C(=O)N1C[C@H](O)C[C@H]1C(N)=O)[C@@H](C)O)C(C)C)[C@@H](C)O)N(C)C(=O)[C@H](C)NC(=O)CN(C)C(=O)[C@H](Cc1ccccc1)NC(=O)[C@H](CC(N)=O)NC(=O)[C@H](CC(N)=O)NC(=O)[C@H](CO)NC(=O)[C@H](CO)NC(=O)[C@H](CCCNC(=N)N)NC(=O)[C@H](Cc1c[nH]cn1)NC(=O)[C@H](CC(C)C)NC(=O)[C@H](Cc1ccccc1)NC(=O)[C@H](CCC(=O)O)NC(=O)[C@H](C)NC(=O)[C@H](CC(C)C)NC(=O)[C@H](CCCNC(=N)N)NC(=O)[C@H](CCC(N)=O)NC(=O)[C@@H](NC(=O)[C@H](C)NC(=O)[C@@H]1CSSC[C@H](NC(=O)[C@H](CCCNC(=N)N)NC(=O)CC[C@H](NC(=O)CCCCCCCCCCCCCCCCCCC(=O)O)C(=O)O)C(=O)N[C@@H](CC(N)=O)C(=O)N[C@@H]([C@@H](C)O)C(=O)N[C@@H](C)C(=O)N[C@@H]([C@@H](C)O)C(=O)N1)[C@@H](C)O [Compound 105, [19CD]-isoGlu-RC()NTATC()ATQRLAEFLHRSSNNF-Gly(Me)-A-Ile(Me)-LSSTNVGSNT-Hyp-NH2] ({C20 diacid-γGlu}-RCNTATCATQRLAEFLHRSSNNF[Sar]A[NMeI]LSSTNVGSNT[Hyp]-NH2; disulfide 2-7) | 57 | 57 | 42
3 | CC[C@H](C)[C@@H](C(=O)N[C@@H](CC(C)C)C(=O)N[C@@H](CO)C(=O)N[C@@H](CO)C(=O)N[C@H](C(=O)N[C@@H](CC(N)=O)C(=O)N[C@H](C(=O)NCC(=O)N[C@@H](CO)C(=O)N[C@@H](CC(N)=O)C(=O)N[C@H](C(=O)N1C[C@H](N)C[C@H]1C(N)=O)[C@@H](C)O)C(C)C)[C@@H](C)O)N(C)C(=O)[C@H](C)NC(=O)CN(C)C(=O)[C@H](Cc1ccccc1)NC(=O)[C@H](CC(N)=O)NC(=O)[C@H](CC(N)=O)NC(=O)[C@H](CO)NC(=O)[C@H](CO)NC(=O)[C@H](CCCNC(=N)N)NC(=O)[C@H](Cc1c[nH]cn1)NC(=O)[C@H](CC(C)C)NC(=O)[C@H](Cc1ccccc1)NC(=O)[C@H](CCC(=O)O)NC(=O)[C@H](C)NC(=O)[C@H](CC(C)C)NC(=O)[C@H](CCCNC(=N)N)NC(=O)[C@H](CCC(N)=O)NC(=O)[C@@H](NC(=O)[C@H](C)NC(=O)[C@@H]1CSSC[C@H](NC(=O)[C@H](CCCNC(=N)N)NC(=O)CC[C@H](NC(=O)CCCCCCCCCCCCCCCCCCC(=O)O)C(=O)O)C(=O)N[C@@H](CC(N)=O)C(=O)N[C@@H]([C@@H](C)O)C(=O)N[C@@H](C)C(=O)N[C@@H]([C@@H](C)O)C(=O)N1)[C@@H](C)O [Compound 110, [19CD]-isoGlu-RC()NTATC()ATQRLAEFLHRSSNNF-Gly(Me)-A-Ile(Me)-LSSTNVGSNT-Apr-NH2] ({C20 diacid-γGlu}-RCNTATCATQRLAEFLHRSSNNF[Sar]A[NMeI]LSSTNVGSNT[Pro(4R-NH2)]-NH2; disulfide 2-7) | 74 | 66 | 59
4 | CC[C@H](C)[C@@H](C(=O)N[C@@H](CC(C)C)C(=O)N[C@@H](CO)C(=O)N[C@@H](CO)C(=O)N[C@H](C(=O)N[C@@H](CC(N)=O)C(=O)N[C@H](C(=O)NCC(=O)N[C@@H](CO)C(=O)N[C@@H](CC(N)=O)C(=O)N[C@H](C(=O)N1CCC[C@H]1C(N)=O)[C@@H](C)O)C(C)C)[C@@H](C)O)N(C)C(=O)[C@H](C)NC(=O)CN(C)C(=O)[C@H](Cc1ccccc1)NC(=O)[C@H](CC(N)=O)NC(=O)[C@H](CC(N)=O)NC(=O)[C@H](CO)NC(=O)[C@H](CO)NC(=O)[C@H](CCCNC(=N)N)NC(=O)[C@H](Cc1c[nH]cn1)NC(=O)[C@H](CC(C)C)NC(=O)[C@H](Cc1ccccc1)NC(=O)[C@H](CCC(=O)O)NC(=O)[C@H](C)NC(=O)[C@H](CC(C)C)NC(=O)[C@H](CCCNC(=N)N)NC(=O)[C@H](CCC(N)=O)NC(=O)[C@@H](NC(=O)[C@H](C)NC(=O)[C@@H]1CSSC[C@H](NC(=O)[C@H](Cc2c[nH]c3ccccc23)NC(=O)[C@H](CCCNC(=N)N)NC(=O)CC[C@H](NC(=O)CCCCCCCCCCCCCCCCCCC(=O)O)C(=O)O)C(=O)N[C@@H](CC(N)=O)C(=O)N[C@@H]([C@@H](C)O)C(=O)N[C@@H](C)C(=O)N[C@@H]([C@@H](C)O)C(=O)N1)[C@@H](C)O [Compound 174, [19CD]-isoGlu-RWC()NTATC()ATQRLAEFLHRSSNNF-Gly(Me)-A-Ile(Me)-LSSTNVGSNTP-NH2] ({C20 diacid-γGlu}-RWCNTATCATQRLAEFLHRSSNNF[Sar]A[NMeI]LSSTNVGSNTP-NH2; disulfide 3-8) | 92 | 31 | 39
